Assay results published in US7125878B2, “Substituted pyrroline kinase inhibitors” (Janssen Pharmaceutica, priority 2002, dated 2006).
Several values for one entry are separate records, joined by “and”; a condition that tells them apart may be missing. Identical values can stand only once.

Each molecule was assayed against T1, recombinant rabbit GSK-3β protein (Oryctolagus cuniculus, UniProt G1T8E2) (assay: Glycogen Synthase Kinase-3 Assay (33P phosphorylation of PPI-2)). Conditions: @1 μM; two numbers = different days.
T1 construct: purchased New England Biolabs
Assay type: biochemical
Protocol: Glycogen Synthase Kinase-3 Assay
Compounds were tested for the ability to inhibit recombinant rabbit GSK-3β protein using the following protocol. The test compound was added to a reaction mixture containing Protein Phosphatase Inhibitor-2 (PPI-2) (Calbiochem) (45 ng), rabbit GSK-3β protein (New England Biolabs) (0.75 units) and ^33P-ATP (1 μCi) in 50 mM Tris-HCl (pH 8.0), 10 mM MgCl2, 0.1% BSA, 1 mM DTT and 100 μM Sodium Vanadate. The mixture was reacted for 90 minutes at 30° C. to allow phosphorylation of the PPI-2 protein and then the protein in the reaction was precipitated using 10% TCA. The precipitated protein was collected on filter plates (MultiScreen-DV/Millipore), which were subsequently washed. Finally, the radioactivity was quantified using a TopCount Scintillation Counter (Packard). […] Staurosporine or Valproate, known inhibitors of GSK-3β, were used as a positive control for screening.

T1 sequence (G1T8E2 1-432): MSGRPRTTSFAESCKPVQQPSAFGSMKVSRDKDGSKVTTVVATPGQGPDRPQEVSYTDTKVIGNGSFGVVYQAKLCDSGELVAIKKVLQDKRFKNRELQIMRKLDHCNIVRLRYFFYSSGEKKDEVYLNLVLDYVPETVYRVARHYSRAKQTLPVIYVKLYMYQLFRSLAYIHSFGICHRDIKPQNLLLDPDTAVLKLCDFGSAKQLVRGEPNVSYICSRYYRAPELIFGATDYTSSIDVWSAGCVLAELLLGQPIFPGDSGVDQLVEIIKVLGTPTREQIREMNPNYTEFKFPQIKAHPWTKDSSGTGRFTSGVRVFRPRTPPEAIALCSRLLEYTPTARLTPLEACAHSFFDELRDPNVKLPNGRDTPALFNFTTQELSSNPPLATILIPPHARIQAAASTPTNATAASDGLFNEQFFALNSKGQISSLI

SMILES	inhibition at 1 µM [%]
O=C1NC(=O)C(c2cn(CCCO)c3ncccc23)=C1c1ncccn1 [Cpd 56, 3-[1-(3-Hydroxy-propyl)-1H-pyrrolo[2,3-b]pyridin-3-yl]-4-pyrimidin-2-yl-pyrrole-2,5-dione]	23
O=C1NC(=O)C(c2cn(CCCO)c3ncccc23)=C1c1c[nH]c(=O)[nH]c1=O [Cpd 68, 5-{4-[1-(3-Hydroxy-propyl)-1H-pyrrolo[2,3-b]pyridin-3-yl]-2,5-dioxo-2,5-dihydro-1H-pyrrol-3-yl}-1H-pyrimidine-2,4-dione]	43
COc1ncc(C2=C(c3cn(Cc4ccccc4)c4ncccc34)C(=O)NC2=O)c(OC)n1 [Cpd 72, 3-(1-Benzyl-1H-pyrrolo[2,3-b]pyridin-3-yl)-4-(2,4-dimethoxy-pyrimidin-5-yl)-pyrrole-2,5-dione]	54
COc1ncc(C2=C(c3cn(CCCc4cccs4)c4ncccc34)C(=O)NC2=O)c(OC)n1 [Cpd 74, 3-(2,4-Dimethoxy-pyrimidin-5-yl)-4-[1-(3-thiophen-2-yl-propyl)-1H-pyrrolo[2,3-b]pyridin-3-yl]-pyrrole-2,5-dione]	39

Same assay, conditions: two numbers = data obtained on different days

SMILES	IC50
O=C1NC(=O)C(c2cn(CCCO)c3ncccc23)=C1C1=COCCO1 [Cpd 51, 3-(5,6-Dihydro-[1,4]dioxin-2-yl)-4-[1-(3-hydroxy-propyl)-1H-pyrrolo[2,3-b]pyridin-3-yl]-pyrrole-2,5-dione]	150 nM and 187 nM
O=C1NC(=O)C(c2cn(CCCO)c3ncccc23)=C1c1ccco1 [Cpd 53, 3-Furan-2-yl-4-[1-(3-hydroxy-propyl)-1H-pyrrolo[2,3-b]pyridin-3-yl]-pyrrole-2,5-dione]	211 nM and 143 nM
O=C1NC(=O)C(c2cn(CCCO)c3ncccc23)=C1c1cc2n(n1)CCCC2 [Cpd 54, 3-[1-(3-Hydroxy-propyl)-1H-pyrrolo[2,3-b]pyridin-3-yl]-4-(4,5,6,7-tetrahydro-pyrazolo[1,5-a]pyridin-2-yl)-pyrrole-2,5-dione]	232 nM and 161 nM
COc1ncc(C2=C(c3cn(CCCc4ccccc4)c4ncccc34)C(=O)NC2=O)c(OC)n1 [Cpd 57, 3-(2,4-Dimethoxy-pyrimidin-5-yl)-4-[1-(3-phenyl-propyl)-1H-pyrrolo[2,3-b]pyridin-3-yl]-pyrrole-2,5-dione]	15 nM and 10 nM
O=C1NC(=O)C(c2cn(CCCc3ccccc3)c3ncccc23)=C1c1cncnc1 [Cpd 58, 3-[1-(3-Phenyl-propyl)-1H-pyrrolo[2,3-b]pyridin-3-yl]-4-pyrimidin-5-yl-pyrrole-2,5-dione]	366 nM and 344 nM
O=C1NC(=O)C(c2cn(CCCc3ccccc3)c3ncccc23)=C1c1cc2n(n1)CCC2 [Cpd 59, 3-(5,6-Dihydro-4H-pyrrolo[1,2-b]pyrazol-2-yl)-4-[1-(3-phenyl-propyl)-1H-pyrrolo[2,3-b]pyridin-3-yl]-pyrrole-2,5-dione]	519 nM and 424 nM
O=C1NC(=O)C(c2cn(CCCc3ccccc3)c3ncccc23)=C1c1cnccn1 [Cpd 60, 3-[1-(3-Phenyl-propyl)-1H-pyrrolo[2,3-b]pyridin-3-yl]-4-pyrazin-2-yl-pyrrole-2,5-dione]	625 nM
O=C1NC(=O)C(c2cn(CCCc3ccccc3)c3ncccc23)=C1C1=CCCCO1 [Cpd 61, 3-(5,6-Dihydro-4H-pyran-2-yl)-4-[1-(3-phenyl-propyl)-1H-pyrrolo[2,3-b]pyridin-3-yl]-pyrrole-2,5-dione]	714 nM and 635 nM
COc1ncc(C2=C(c3cn(CCCC#N)c4ncccc34)C(=O)NC2=O)c(OC)n1 [Cpd 62, 4-{3-[4-(2,4-Dimethoxy-pyrimidin-5-yl)-2,5-dioxo-2,5-dihydro-1H-pyrrol-3-yl]-pyrrolo[2,3-b]pyridin-1-yl}-butyronitrile]	36 nM and 35 nM
N#CCCCn1cc(C2=C(c3cnccn3)C(=O)NC2=O)c2cccnc21 [Cpd 63, 4-[3-(2,5-Dioxo-4-pyrazin-2-yl-2,5-dihydro-1H-pyrrol-3-yl)-pyrrolo[2,3-b]pyridin-1-yl]-butyronitrile]	77 nM and 102 nM
Cn1ccc(C2=C(c3cn(CCCC#N)c4ncccc34)C(=O)NC2=O)n1 [Cpd 64, 4-{3-[4-(1-Methyl-1H-pyrazol-3-yl)-2,5-dioxo-2,5-dihydro-1H-pyrrol-3-yl]-pyrrolo[2,3-b]pyridin-1-yl}-butyronitrile]	77 nM and 128 nM
O=C1NC(=O)C(c2cn(CCCOc3ccccc3)c3ncccc23)=C1c1cc2n(n1)CCC2 [Cpd 65, 3-(5,6-Dihydro-4H-pyrrolo[1,2-b]pyrazol-2-yl)-4-[1-(3-phenoxy-propyl)-1H-pyrrolo[2,3-b]pyridin-3-yl]-pyrrole-2,5-dione]	188 nM and 244 nM
Cn1nccc1C1=C(c2cn(CCCO)c3ncccc23)C(=O)NC1=O [Cpd 66, 3-[1-(3-Hydroxy-propyl)-1H-pyrrolo[2,3-b]pyridin-3-yl]-4-(2-methyl-2H-pyrazol-3-yl)-pyrrole-2,5-dione]	480 nM and 660 nM
O=C1NC(=O)C(c2cn(CCCO)c3ncccc23)=C1c1ccoc1 [Cpd 67, 3-Furan-3-yl-4-[1-(3-hydroxy-propyl)-1H-pyrrolo[2,3-b]pyridin-3-yl]-pyrrole-2,5-dione]	140 nM and 59 nM
Cn1ccc(C2=C(c3cn(CCC#N)c4ncccc34)C(=O)NC2=O)n1 [Cpd 69, 3-{3-[4-(1-Methyl-1H-pyrazol-3-yl)-2,5-dioxo-2,5-dihydro-1H-pyrrol-3-yl]-pyrrolo[2,3-b]pyridin-1-yl}-propionitrile]	100 nM
CCCCC1=C(c2cn(CCCO)c3ncccc23)C(=O)NC1=O [Cpd 70, 3-Butyl-4-[1-(3-hydroxy-propyl)-1H-pyrrolo[2,3-b]pyridin-3-yl]-pyrrole-2,5-dione]	380 nM
COCCn1cc(C2=C(c3cnc(OC)nc3OC)C(=O)NC2=O)c2cccnc21 [Cpd 71, 3-(2,4-Dimethoxy-pyrimidin-5-yl)-4-[1-(2-methoxy-ethyl)-1H-pyrrolo[2,3-b]pyridin-3-yl]-pyrrole-2,5-dione]	360 nM
COc1ncc(C2=C(c3cn(CCc4ccccc4)c4ncccc34)C(=O)NC2=O)c(OC)n1 [Cpd 73, 3-(2,4-Dimethoxy-pyrimidin-5-yl)-4-(1-phenethyl-1H-pyrrolo[2,3-b]pyridin-3-yl)-pyrrole-2,5-dione]	100 nM
COc1ncc(C2=C(c3cn(CCOc4ccc(F)cc4)c4ncccc34)C(=O)NC2=O)c(OC)n1 [Cpd 75, 3-(2,4-Dimethoxy-pyrimidin-5-yl)-4-{1-[2-(4-fluoro-phenoxy)-ethyl]-1H-pyrrolo[2,3-b]pyridin-3-yl}-pyrrole-2,5-dione]	240 nM
COc1ncc(C2=C(c3cn(CCCOc4ccccc4)c4ncccc34)C(=O)NC2=O)c(OC)n1 [Cpd 76, 3-(2,4-Dimethoxy-pyrimidin-5-yl)-4-[1-(3-phenoxy-propyl)-1H-pyrrolo[2,3-b]pyridin-3-yl]-pyrrole-2,5-dione]	43 nM and 59 nM
COc1ccccc1C1=C(c2cn(CCCNC(C)=O)c3ncccc23)C(=O)NC1=O [Cpd 77, N-[3-[3-[2,5-dihydro-4-(2-methoxyphenyl)-2,5-dioxo-1H-pyrrol-3-yl]-1H-pyrrolo[2,3-b]pyridin-1-yl]propyl]-acetamide]	2 nM and 3 nM

What follows are molecules tested against PKC-βII (Homo sapiens, UniProt P05771) (assay: Protein Kinase C Histone-Based Assay, isozyme β-II). Conditions: @1 μM.
Assay type: biochemical
Protocol: (§1) Compounds were evaluated for PKC isozyme selectivity using histone III as the substrate. […] 100 μg/mL phosphatidylserine, 20 μg/mL diacylglycerol, 30 μM ATP, 1 μCi [^33P]ATP and 200 μg/mL histone III. The reaction was incubated for 10 min at 30° C. Reactions were terminated by TCA precipitation and spotting on Whatman P81 filters. Filters were washed in 75 mM phosphoric acid and the radioactivity quantified by liquid scintillation counting.

PKC-βII, sequence (P05771 1-673 isoform P05771-2): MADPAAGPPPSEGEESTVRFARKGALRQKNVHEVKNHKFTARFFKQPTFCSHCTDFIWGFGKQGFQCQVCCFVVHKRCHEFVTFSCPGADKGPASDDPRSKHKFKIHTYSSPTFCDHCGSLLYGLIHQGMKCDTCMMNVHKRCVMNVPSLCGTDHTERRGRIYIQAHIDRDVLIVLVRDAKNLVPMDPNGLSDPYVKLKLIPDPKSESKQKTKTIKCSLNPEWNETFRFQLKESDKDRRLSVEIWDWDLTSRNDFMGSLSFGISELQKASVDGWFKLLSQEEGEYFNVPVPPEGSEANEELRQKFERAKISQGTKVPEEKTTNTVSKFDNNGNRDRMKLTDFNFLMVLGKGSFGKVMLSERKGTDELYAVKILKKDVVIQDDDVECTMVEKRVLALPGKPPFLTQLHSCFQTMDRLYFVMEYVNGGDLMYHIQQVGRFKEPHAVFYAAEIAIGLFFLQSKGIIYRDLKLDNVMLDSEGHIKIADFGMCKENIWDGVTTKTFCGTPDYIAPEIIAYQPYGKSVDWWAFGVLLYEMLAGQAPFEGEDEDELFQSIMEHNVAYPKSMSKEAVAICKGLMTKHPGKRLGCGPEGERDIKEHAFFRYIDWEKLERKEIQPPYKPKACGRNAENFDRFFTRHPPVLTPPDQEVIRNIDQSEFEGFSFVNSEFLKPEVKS

SMILES	inhibition at 1 µM [%]
COc1ccccc1C1=C(c2cn(CCCNC(C)=O)c3ncccc23)C(=O)NC1=O [Cpd 77, N-[3-[3-[2,5-dihydro-4-(2-methoxyphenyl)-2,5-dioxo-1H-pyrrol-3-yl]-1H-pyrrolo[2,3-b]pyridin-1-yl]propyl]-acetamide]	49

These molecules were tested against PKC-α (Homo sapiens, UniProt P17252) (assay: Protein Kinase C Histone-Based Assay, isozyme α). Conditions: read-out: PKC-α % inhibition.
Protocol: as §1

SMILES	inhibition at 10 µM [%]
COc1ccccc1C1=C(c2cn(CCCNC(C)=O)c3ncccc23)C(=O)NC1=O [Cpd 77, N-[3-[3-[2,5-dihydro-4-(2-methoxyphenyl)-2,5-dioxo-1H-pyrrol-3-yl]-1H-pyrrolo[2,3-b]pyridin-1-yl]propyl]-acetamide]	26
